From PMC4871512, “Drug-Based Lead Discovery: The Novel Ablative Antiretroviral Profile of Deferiprone in HIV-1-Infected Cells and in HIV-Infected Treatment-Naive Subjects of a Double-Blind, Placebo-Controlled, Randomized Exploratory Trial” (PLoS ONE, 2016)
Entries after “also recorded” stand apart in the source; their conditions may differ. Where two headings read alike, the source gives them in different places.

What was measured:
[1] = tested on: HIV-1 clinical isolate in PBMCs; assay: p24 core antigen ELISA in supernatant of isolate-infected, long-term replenished primary cell cultures; type: cell-based; conditions: for p24, level relative to untreated controls: after two weeks, stably infected replenished primary cell cultures
Method: (§1) Cell-free supernatants were used for p24 and HIV-1 RNA measurements. p24 core antigen in the supernatant was quantified by ELISA (Retrotek HIV-1 p24®; ZeptoMetrix Corp.; Buffalo, NY). HIV-1 RNA copy number in the supernatant of PBMC cultures and in plasma of trial subjects enrolled in the exploratory deferiprone trial was determined with a PCR-based and FDA-approved assay (Amplicor HIV-1 Monitor®; Roche Diagnostics Corp.; Indianapolis, IN). For clinical samples, the assay was used per the Standard Specimen Processing Procedure (sensitivity limit 400 copies/ml); for cell culture samples, the assay was used in both the Standard Specimen Processing and the UltraSensitive Specimen Processing Procedure (sensitivity limit 50 copies/ml). If not specified further, the term “log10” designates the amount of HIV-1 RNA in the dimensions [log10 / ml]. The Roche Amplicor HIV-1 DNA Test (Roche Diagnostics Corp.; Indianapolis, IN) was used for detection of HIV-1 DNA with the primer pair SK431/462, which amplifies a highly conserved region of the gag genome of HIV-1 subtype B DNA. Results are shown per the assay’s optical readings of a chromogenic reaction that relates absorbance at 450 nm to the HIV-1 DNA copy number and is calibrated by assay-internal copy controls (A450 < 0.350, HIV-1 DNA absent; A450 ≥ 3.0, HIV-1 DNA present in excess of 20 copies; A450 between 0.350 and 3.0, HIV-1 DNA copy number per copy controls). Apoptotic DNA fragmentation was quantified flow-cytometrically, using a terminal deoxynucleotide transferase dUTP nick end-labeling (TUNEL) assay (APO-BRDU™; Phoenix Flow Systems; San Diego, CA). All experiments and assays were performed at least in duplicate.
(§2) The antiretroviral activity of deferiprone was tested in primary cultures of PBMCs, infected in vitro with clinical isolate or mock-infected with clinical isolate-identical cell- and virus-free medium as described. Briefly, to approximate the bi-compartmental mode of HIV-1 infection in vivo, which comprises a cell-generative compartment that provides non-infected but HIV-1 susceptible cells, and an HIV-generative compartment in which they become infected, the cultures were replenished as described with freshly obtained uninfected primary cells and medium at regular intervals, assuring identical cell number in both the treated and control cultures by computerized trypan blue exclusion analysis (Vi-CELL™; Beckman Coulter, Miami, FL); deferiprone concentrations were adjusted as indicated. This model allowed for months-long monitoring of HIV-1 parameters in productively infected cultures.

[2] = tested on: HIV-1 clinical isolate in PBMCs; assay: HIV-1 RNA copy number (Amplicor HIV-1 Monitor) in supernatant of isolate-infected PBMC cultures; type: cell-based; conditions: for viral breakthrough during monotherapy: one week to one month
Method: as §1, §2

[3] = tested on: HIV-1 DNA; assay: HIV-1 DNA (Roche Amplicor HIV-1 DNA Test) in isolate-infected primary cell cultures; type: cell-based; conditions: 200 μM deferiprone
Method: Cell-free supernatants were used for p24 and HIV-1 RNA measurements. p24 core antigen in the supernatant was quantified by ELISA (Retrotek HIV-1 p24®; ZeptoMetrix Corp.; Buffalo, NY). HIV-1 RNA copy number in the supernatant of PBMC cultures and in plasma of trial subjects enrolled in the exploratory deferiprone trial was determined with a PCR-based and FDA-approved assay (Amplicor HIV-1 Monitor®; Roche Diagnostics Corp.; Indianapolis, IN). For clinical samples, the assay was used per the Standard Specimen Processing Procedure (sensitivity limit 400 copies/ml); for cell culture samples, the assay was used in both the Standard Specimen Processing and the UltraSensitive Specimen Processing Procedure (sensitivity limit 50 copies/ml). If not specified further, the term “log10” designates the amount of HIV-1 RNA in the dimensions [log10 / ml]. […] Results are shown per the assay’s optical readings of a chromogenic reaction that relates absorbance at 450 nm to the HIV-1 DNA copy number and is calibrated by assay-internal copy controls (A450 < 0.350, HIV-1 DNA absent; A450 ≥ 3.0, HIV-1 DNA present in excess of 20 copies; A450 between 0.350 and 3.0, HIV-1 DNA copy number per copy controls). Apoptotic DNA fragmentation was quantified flow-cytometrically, using a terminal deoxynucleotide transferase dUTP nick end-labeling (TUNEL) assay (APO-BRDU™; Phoenix Flow Systems; San Diego, CA). […]

[4] = tested on: HIV-infected peripheral blood mononuclear cells; assay: Apoptotic DNA fragmentation by TUNEL in single-donor non-replenished PBMC cultures; type: cell-based, human; conditions: 200 μM deferiprone
Method: Fig 2 Effect of deferiprone in HIV-infected primary cells: Apoptotic DNA fragmentation, deoxyhypusyl-eIF5A accumulation, and DOHH activity. Apoptotic DNA fragmentation (Panel A) was detected by terminal deoxynucleotide transferase dUTP nick end labeling (TUNEL) of single-donor peripheral blood mononuclear cells, maintained in short-term non-replenished cultures as described. Cells were left uninfected and/or untreated; or infected immediately after plating with clinical HIV-1 isolate and 12 hours after infection, treated with 200 μM deferiprone. […] The dose-effect curve for inhibition of cellular DOHH by increasing deferiprone concentrations in short-term non-replenished single-donor cultures (Panel C) was calculated from the accumulation of its ^3H-labeled substrate and the decrease of its ^3H-labeled product; error bars are at the size of the graph symbols and not shown. […]
Cell-free supernatants were used for p24 and HIV-1 RNA measurements. p24 core antigen in the supernatant was quantified by ELISA (Retrotek HIV-1 p24®; ZeptoMetrix Corp.; Buffalo, NY). HIV-1 RNA copy number in the supernatant of PBMC cultures and in plasma of trial subjects enrolled in the exploratory deferiprone trial was determined with a PCR-based and FDA-approved assay (Amplicor HIV-1 Monitor®; Roche Diagnostics Corp.; Indianapolis, IN). […]

[5] = Proof-of-concept trial: entry PK study, deferiprone in serum after the first oral dose; type: in vivo, human; conditions: for Cmax: human, serum
Description: Eligible for enrollment were volunteers of both genders, between 18 and 60 years old, healthy or HIV-infected with CD4 count ≥ 300/mm^3, viral load of ≥ 10,000 copies/ml, and absence of active infectious disease; AIDS-defining condition; febrile illness; liver or kidney disease; hypersensitivity to test material; and medication requirement. The protocol involved a screening visit; a pharmacokinetic and antiretroviral study requiring admission to a specialized Phase I research unit for a week of on-drug treatment, with multiple blood draws from a peripheral vein after oral intake of the first deferiprone dose, […], and at least three repeat blood draws (first stage of protocol); an off-drug observation period of eight weeks, which comprised at least two repeat visits (second stage of protocol); and an exit visit. Enrollment complied with the applicable standard-of-care specified in the ‘Clinical Guidelines for the Management of HIV & AIDS in Adults and Adolescents’, National Department of Health, Republic of South Africa. Primary parameters included safety and tolerability (e.g. vital signs, laboratory variables, cardiac monitoring by ECG) and antiretroviral activity (e.g. RNA copies of HIV-1). Secondary parameters included pharmacokinetic variables (e.g. peak serum concentration) in serum, drawn from a peripheral vein at fixed times (0, 0.5, 1, 1.5, 2, 3, 4, 6, 9, 12) after the ingestion of the first dose on Day 1 of the study. The concentration of the nonconjugated, chelation-competent form of deferiprone in serum was determined by UV detection at 280 nm, after separation via reversed-phase HPLC under isocratic conditions. The lower limit of deferiprone quantitation was 1.466 μM, or 0.204 μg/ml. HIV-1 RNA was measured as described and used as log10-transformed parameter in all calculations.

[6] = human, in vivo; cited from earlier work
[7] = after withdrawal of 100 μM deferiprone

## Cc1c(O)c(=O)ccn1C [deferiprone, 3-hydroxy-1,2-dimethylpyridin-4-one]
[1]; 50 μM for 30 days followed by escalation to 200 μM (data not shown)
  p24 after escalation of concentration: complete suppression of p24 within one week
[1]; 100 μM deferiprone
  p24 on-drug: declined to the limit of detectability
  p24, level relative to untreated controls: ≤ 10%
[1]; 200 μM deferiprone
  p24, level relative to untreated controls: ≤ 10%
[1]; after 100 μM deferiprone
  extracellular p24 after deferiprone withdrawal: increased rapidly to levels higher than pre-treatment
[1]; after 200 μM deferiprone
  p24 off-drug: did not rebound off-drug
[1]; below 100 μM deferiprone
  p24 expression: only marginally affected
[2]; 100 μM deferiprone, on-drug
  HIV-1 RNA decrease below the pre-treatment level of ≥10^6 copies/ml: one order of magnitude
  HIV-1 RNA new steady state: ~10^5 copies/ml
[2]; 100 μM deferiprone, up to 35 days
  viral breakthrough during monotherapy: did not elicit viral breakthrough; also recorded: did not allow viral breakthrough
[2]; 200 μM (supra-threshold) deferiprone, up to 35 days / 5 weeks
  viral breakthrough during monotherapy: did not allow viral breakthrough; also recorded: did not elicit viral breakthrough; also recorded: neither allowed breakthrough
[2]; 200 μM deferiprone
  time to reach HIV-1 RNA ≤10^3 copies/ml: 2–4 weeks
[2]; 200 μM deferiprone (Fig 1B)
  HIV-1 RNA decrease below its initial range: at least three orders of magnitude
[2]; 200 μM deferiprone, depending on combination of viral isolate and PBMCs
  HIV-1 RNA level reached on-drug: ≤ 10^3 copies/ml
[2]; 200 μM deferiprone, repeated experiments
  decline of HIV-1 RNA production: 3 log
[2]; after 200 μM deferiprone, replenished with fresh CD4+ lymphocytes (Fig 1)
  off-drug period in which HIV-1 RNA production failed to resume: at least 10 days
[2]; [7]
  post-treatment period to reacquire the original level of ≥10^6 copies/ml: about 5 days
  rate of HIV-1 RNA rebound to the pre-treatment range: +0.24 log10/ml/day
[2]; below 100 μM deferiprone
  viral copy number: only marginally affected
[2]; off-drug after 200 μM deferiprone, apparently stable
  HIV-1 RNA reduction relative to untreated cultures: ~ 4 log
[3]
  decline of HIV-1 DNA: reached the lower limit of detectability
[3]; 10 days off-drug
  final A450 readings of the HIV-1 DNA test: negative for the continued presence of HIV-1 DNA
[4]; at 120 hours
  DNA fragmentation in infected treated relative to infected untreated cultures: twice
[4]; at 144 hours, P = 0.001
  DNA fragmentation in infected treated relative to infected untreated cultures: three times as high
[5]; 99 mg group
  subjects with serum cmax concentrations above the threshold (150 μM): 4 of 7
[5]; 150 mg group
  subjects with serum cmax concentrations above the threshold (150 μM): 3 of 4
[5]; both sexes, oral, approximation from pharmacokinetic, viral load and tolerability findings, read-out: serum cmax an effective and tolerable regimen may have to achieve
  Cmax: 150 to 275 µM
[5]; both sexes, po, 33 mg/kg, 99 mg group, first oral dose 33 mg/kg, read-out: cmax, range within group
  Cmax: 53 to 314 µM
[5]; both sexes, po, 50 mg/kg, 150 mg group, first oral dose 50 mg/kg, read-out: cmax, range within group
  Cmax: 128 to 285 µM
[5]; oral, 99 mg, Subject 2, 99 mg group, read-out: cmax
  Cmax: 314 µM
[5]; oral, 150 mg, Subject 19, 150 mg group, read-out: cmax
  Cmax: 128 µM
[5]; oral, 150 mg, Subject 22, 150 mg group, read-out: cmax
  Cmax: 285 µM
[6]
  Abdominal pain/discomfort, patients affected: 10.4%
  Alanine aminotransferase increased, patients affected: 7.5%
  Arthralgia, patients affected: 9.8%
  Headache, patients affected: 2.5%
  Nausea, patients affected: 12.6%
  Neutropenia (neutrophils < 1.5 x 10^9/L and > 0.5 x 10^9/L), patients affected: 6.2%
  Vomiting, patients affected: 9.8%
  agranulocytosis (absolute neutrophil count less than 0.5 × 10^9/L), patients affected: 1.7%
